{
  "source": "patent US9724537B2",
  "about": "“Abnormal electrical conduction blocking apparatus using photodynamic therapy (PDT)” (Keio University, priority 2006, dated 2017)",
  "key": {"[1]": {"system": "isolated ventricular muscle tissue", "assay": "Formation of electrical conduction block by PDT in isolated cardiac muscle tissue", "parameters": "species or system Wister rat", "settings": "4.3 μg/ml", "experimental": "An electrical conduction block was formed by performing PDT using a cardiac muscle tissue.\nA cardiac muscle tissue was isolated from a Wister rat, immersed in a perfusion fluid (Tyrode's solution [aerated with 95% O2 and 5% CO2 gases and stored at 37° C. in a constant-temperature apparatus]), spread, fixed on the floor (made of silicon) of a tissue bath with a tungsten wire to prepare a spread sample (maximum 1.5 cm long, 1.0 cm width, 0.18 cm thickness) of an isolated ventricular muscle. A perfusion fluid was passed through the spread sample and stabilized by allowing to stand for approx. 3 h. At this time, the perfusion fluid was not reused.\nAs a photosensitizer, talaporfin sodium was dissolved in a perfusion fluid at 4.3 μg/ml, and 300 cc was circulated and perfused. It is assumed that, when a photosensitizer is intravenously injected to a 300-g rat at approx. 2 mg/kg, the photosensitizer is dissolved at about this concentration in the fluid throughout the body. After loading for 2 h, a liquid level of the perfusion fluid was lowered to the tissue surface or lower, and the spread tissue was irradiated with a laser beam.\nThe irradiation laser beam was a continuous semiconductor laser beam (peak wavelength, 670.8 nm) and was delivered to the tissue from an irradiation port of 0.0078 cm^2 at the fiber end with an intensity of 150 mW/cm^2 in a contact state. While moving the fiber, a 0.1-cm^2 (0.1 cm length×1 cm width) region of the tissue surface was irradiated with a laser beam for 5 min. Irradiation was performed at 3.5 J/cm^2 in terms of total energy density.\nThe tissue action potential was measured as follows. An electrical stimulus of 2 Hz and 50 mA was applied from a bipolar electrode (0.2φ silver wire) using a stimulator, and a potential of the tissue surface was led with a bipolar measuring electrode (0.25φ stainless wire).\nFIGS. 8A to 8F show changes in the potential of the spread tissue. In FIGS. 8A to 8F, the upper line represents potential changes at site 1 in FIG. 7. The lower line represents potential changes at site 2 in FIG. 7. The unit of the vertical axis is mV."}, "[2]": {"system": "myoblast strain H9c2 (2-1) derived from the rat cardiac muscle", "assay": "PDT cell lethality (CCK-8) in cell strain H9c2 (2-1)", "type": "cell-based", "experimental": "Using a skeletal muscle-like myoblast strain H9c2 (2-1) derived from the rat cardiac muscle, the relationship between the photosensitizer concentration and the cell lethality and the laser output required to induce cell death were investigated.\nThe above-mentioned cells were subcultured in a D-MEM+10% FBS medium, confluent cells were isolated, seeded on a 96-well microplate, and cultured at 37° C. under 5% CO2 for one day.\nThe cultured cells were adjusted to a density of 2.0×10^4 cells/well. As a photosensitizer, talaporfin sodium was dissolved in a medium at various concentrations and added at a concentration of 0.1 ml/well. After 1 to 2 h of loading, cells were irradiated with a laser beam. After completion of irradiation, the medium was replaced.\nAt this time, in a 0.5-cm^2 irradiation field (=area of the well) was irradiated with a continuous semiconductor laser beam (peak wavelength, 670.8 nm) under various conditions.\nAfter irradiation with a laser beam, 0.01 ml of Cell Counting Kit-8 (Dojindo Laboratories, hereinafter referred to as CCK-8) was added to the medium in each well, the plate was incubated for 2 h, and then absorbance was measured to obtain the cell lethality. For calculation of the cell lethality, the property of a coloring reagent in CCK-8 of producing a color upon reduction with dehydrogenase in the cell was utilized. Six samples were examined.\nThe experimental conditions were as follows.\n(i) Relationship between photosensitizer concentration and cell lethality\nAgent concentrations: 10, 20, 30, 40 μg/ml\nLaser intensity: 150 mW/cm^2\nTotal energy density: 3 J/cm^2\n(ii) Relationship between total energy density of laser irradiation and cell lethality\nAgent concentrations: 7.5, 15 μg/ml\nTotal energy density: 3, 6, 9, 12 J/cm^2\n(iii) Relationship between laser intensity and cell lethality"}, "[3]": {"system": "cultured cardiac muscle cells derived from an SD rat", "assay": "PDT cell lethality vs photosensitizer concentration, loading time and total dose (CCK-8)", "type": "cell-based", "settings": "for cell lethality at 2 h after irradiation: loading 0 to 120 min, 5, 10, 15 J/cm^2", "experimental": "Using cultured cardiac muscle cells derived from an SD rat, the relationship of the photosensitizer concentration, the photosensitizer loading time, and the cell lethality and the laser output required to induce cell death were examined\nCultured cardiac muscle cells derived from an SD rat were purchased from Cell Garage Co., Ltd. D-MEM/F12+10% FBS was used as a medium.\n2.2 to 2.3×10^5 cells/ml of cardiac muscle cells in suspension were seeded on a collagen-coated 96-well plate at 0.1 ml/well (2.2 to 2.3×10^4 cells/well) and cultured in an incubator (37° C., CO2 concentration 5%) for six to seven days.\nAt this time, talaporfin sodium as a photosensitizer was dissolved in a medium at 5, 15, or 30 μg/ml. Cardiac muscle cells were loaded with talaporfin sodium for 0, 30, 60, or 120 min and irradiated with a laser beam. Laser irradiation was performed using a continuous semiconductor laser beam (peak wavelength, 670.8 nm; power density, 150 mW/cm^2) on a 0.5-cm^2 irradiation field (=area of a well) at 5, 10, and 15 J/cm^2.\nAfter laser irradiation, 0.01 ml of Cell Counting Kit-8 (Dojindo Laboratories, hereinafter referred to as CCK-8) was added to the medium in each well, the plate was incubated for 2 h, and the absorbance at 450 nm was measured to calculate the cell lethality. The cell lethality was calculated based on the absorbance without performing laser irradiation as 100%."}},
  "data": [
    {"smiles": "C=Cc1c(C)c2cc3nc(c(CC(=O)N[C@@H](CC(=O)O)C(=O)O)c4[nH]c(cc5nc(cc1[nH]2)C(C)=C5CC)c(C)c4C(=O)O)[C@@H](CCC(=O)O)[C@@H]3C", "note": "[talaporfin sodium, mono-L-aspartyl chlorine 6]", "values": [
      {"measurement": "time without electrical conduction after block", "setting": "[1]; loading 2 h, 3.5 J/cm^2", "result": "≥ 1", "unit": "h"},
      {"measurement": "electrical conduction (potential at site 2)", "setting": "[1]; loading 2 h, 3.5 J/cm^2, 5 min after the completion of laser irradiation", "result": "the electrical conduction route was completely blocked"},
      {"measurement": "electrical conduction (potential at site 2)", "setting": "[1]; loading 2 h, 150 mW/cm^2, 5 min after the start of laser irradiation", "result": "a portion of the stimulus conduction route is blocked"},
      {"measurement": "cell conditions in tissue sample at PDT site", "setting": "[1]; 3.5 J/cm^2, FIG. 9", "result": "no major abnormality was observed in the cell conditions"},
      {"measurement": "cell death vs total energy density", "setting": "[2]; 7.5 μg/ml, 150 mW/cm^2, 3, 6, 9, 12 J/cm^2, FIG. 2", "result": "almost no cell death was observed"},
      {"measurement": "cell lethality vs total energy density", "setting": "[2]; 15 μg/ml, 150 mW/cm^2, 3, 6, 9, 12 J/cm^2, FIG. 2", "result": "the greater the total energy density of laser irradiation was, the higher the cell lethality was"},
      {"measurement": "cell lethality at 40 μg/ml", "setting": "[2]; 40 μg/ml vs 30 μg/ml, 150 mW/cm^2, 3 J/cm^2", "result": "the result did not differ from that at 30 μg/ml"},
      {"measurement": "cell lethality vs laser intensity", "setting": "[2]; 7.5, 15 μg/ml, 3 J/cm^2, laser intensity 50 to 200 mW/cm^2, FIG. 3", "result": "the cell lethality did not change"},
      {"measurement": "cell lethality vs photosensitizer concentration", "setting": "[2]; up to 30 μg/ml, 150 mW/cm^2, 3 J/cm^2, FIG. 1", "result": "the higher the photosensitizer concentration was, the higher the cell lethality was"},
      {"measurement": "cell lethality at 2 h after irradiation", "setting": "[3]; 15 μg/ml or lower", "result": "no marked effect was observed"},
      {"measurement": "cell morphology immediately after laser beam irradiation", "setting": "[3]; 30 μg/ml, 15 J/cm^2, loading 30 min", "result": "marked changes in cell morphology, such as exfoliation and shrinkage of cells, were observed"},
      {"measurement": "cell lethality at 2 h after irradiation", "setting": "[3]; 30 μg/ml", "result": "the cell lethality markedly increased after laser beam irradiation"},
      {"measurement": "cell lethality vs loading time", "setting": "[3]; loading 0, 30, 60, 120 min, FIG. 19", "result": "loading for 30 min was most effective"}
    ]}
  ]
}
